Results from ChEMBL document CHEMBL5291721, “A preclinical secondary pharmacology resource illuminates target-adverse drug reaction associations of marketed drugs” (Nat Commun, 2023).
*1 amine or outer side, *2 acyl side, *3 side chain or, on linkers, in order; H or OH if unused. Where a SMILES comes first, the peptide text is derived from it. Bridges are numbered along the chain shown (N, C = ends). [ ]: non-standard residue; d: D form. The star is where a group is joined. hTyr(3S-OH,4S-OH,3'-OSO3H) = N[C@H](C(=O)O)[C@H](O)[C@@H](O)c1ccc(O)c(OS(=O)(=O)O)c1; Orn(4R-OH,5R-OH) = O=C([C@H](C[C@@H](O)[C@@H](O)N[*:3])N[*:1])[*:2]; Pro(3S-OH,4S-Me) = C[C@H]1CN[C@H](C(=O)O)[C@H]1O; X1 = CCCCCOc1ccc(-c2cc(-c3ccc(C(=O)*)cc3)no2)cc1; Gln(3R-OH) = NC(=O)C[C@@H](O)[C@H](N)C(=O)O; Hyp = O=C(O)[C@@H]1C[C@@H](O)CN1

Key:
[1] = target: T1, Alpha-1A adrenergic receptor (Homo sapiens, UniProt P35348); assay type: functional, cell-based
T1 sequence (P35348 whole entry): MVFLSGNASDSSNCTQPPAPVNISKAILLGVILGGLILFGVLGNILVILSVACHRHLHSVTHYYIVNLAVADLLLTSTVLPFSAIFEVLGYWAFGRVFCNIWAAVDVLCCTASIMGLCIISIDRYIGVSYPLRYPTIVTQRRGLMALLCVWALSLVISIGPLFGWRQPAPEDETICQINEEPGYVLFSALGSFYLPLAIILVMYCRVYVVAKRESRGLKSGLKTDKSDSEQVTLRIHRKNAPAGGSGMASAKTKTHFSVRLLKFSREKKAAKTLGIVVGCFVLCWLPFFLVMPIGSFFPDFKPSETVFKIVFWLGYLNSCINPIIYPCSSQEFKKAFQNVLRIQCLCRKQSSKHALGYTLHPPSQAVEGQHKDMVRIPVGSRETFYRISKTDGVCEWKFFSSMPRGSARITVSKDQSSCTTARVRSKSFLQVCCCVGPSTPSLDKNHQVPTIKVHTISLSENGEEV

[2] = target: D(3) dopamine receptor (Homo sapiens, UniProt P35462)
D(3) dopamine receptor, sequence (P35462 whole entry): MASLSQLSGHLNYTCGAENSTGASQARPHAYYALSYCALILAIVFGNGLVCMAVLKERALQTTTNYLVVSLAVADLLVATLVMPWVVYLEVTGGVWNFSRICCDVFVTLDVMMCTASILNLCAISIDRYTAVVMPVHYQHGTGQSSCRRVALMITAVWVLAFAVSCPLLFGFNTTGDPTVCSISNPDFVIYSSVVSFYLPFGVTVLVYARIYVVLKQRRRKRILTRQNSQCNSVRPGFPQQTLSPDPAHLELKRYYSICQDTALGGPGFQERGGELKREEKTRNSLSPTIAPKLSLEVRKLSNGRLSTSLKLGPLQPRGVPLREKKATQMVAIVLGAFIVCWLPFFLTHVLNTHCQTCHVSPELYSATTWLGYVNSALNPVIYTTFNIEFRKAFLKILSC

[3] = target: T1, Alpha-1A adrenergic receptor; assay type: functional, cell-based; remark: listed apart in the source
[4] = target: T2, Muscarinic acetylcholine receptor M2 (Homo sapiens, UniProt P08172); assay type: functional, cell-based
T2 sequence (P08172 whole entry): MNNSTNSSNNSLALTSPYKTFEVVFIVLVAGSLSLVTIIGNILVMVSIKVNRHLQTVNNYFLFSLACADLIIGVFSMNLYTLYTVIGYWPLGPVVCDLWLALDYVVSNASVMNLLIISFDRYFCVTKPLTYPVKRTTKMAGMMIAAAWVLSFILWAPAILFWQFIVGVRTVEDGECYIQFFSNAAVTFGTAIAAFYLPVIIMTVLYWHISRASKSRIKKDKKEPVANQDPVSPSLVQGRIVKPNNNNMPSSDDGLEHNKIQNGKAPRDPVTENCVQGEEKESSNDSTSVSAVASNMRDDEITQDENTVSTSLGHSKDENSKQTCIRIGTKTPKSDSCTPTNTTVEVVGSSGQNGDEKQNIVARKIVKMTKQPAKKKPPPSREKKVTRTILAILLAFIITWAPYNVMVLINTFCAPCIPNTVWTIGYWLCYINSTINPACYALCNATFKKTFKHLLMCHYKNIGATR

[5] = target: T3, Adenosine receptor A1 (Homo sapiens, UniProt P30542)
T3 sequence (P30542 whole entry): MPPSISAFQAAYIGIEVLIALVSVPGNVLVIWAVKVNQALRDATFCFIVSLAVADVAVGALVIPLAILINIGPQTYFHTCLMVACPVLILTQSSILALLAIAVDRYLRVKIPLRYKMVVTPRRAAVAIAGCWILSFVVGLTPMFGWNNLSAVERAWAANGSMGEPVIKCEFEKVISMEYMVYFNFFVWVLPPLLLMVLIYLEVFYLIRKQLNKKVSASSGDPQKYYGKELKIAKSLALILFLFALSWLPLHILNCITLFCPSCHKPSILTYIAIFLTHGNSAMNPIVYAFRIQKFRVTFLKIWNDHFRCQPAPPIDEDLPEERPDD

[6] = target: T1, Alpha-1A adrenergic receptor; assay type: functional, cell-based; remark: listed apart in the source
[7] = target: Motilin receptor (Homo sapiens, UniProt O43193)
Motilin receptor, sequence (O43193 whole entry): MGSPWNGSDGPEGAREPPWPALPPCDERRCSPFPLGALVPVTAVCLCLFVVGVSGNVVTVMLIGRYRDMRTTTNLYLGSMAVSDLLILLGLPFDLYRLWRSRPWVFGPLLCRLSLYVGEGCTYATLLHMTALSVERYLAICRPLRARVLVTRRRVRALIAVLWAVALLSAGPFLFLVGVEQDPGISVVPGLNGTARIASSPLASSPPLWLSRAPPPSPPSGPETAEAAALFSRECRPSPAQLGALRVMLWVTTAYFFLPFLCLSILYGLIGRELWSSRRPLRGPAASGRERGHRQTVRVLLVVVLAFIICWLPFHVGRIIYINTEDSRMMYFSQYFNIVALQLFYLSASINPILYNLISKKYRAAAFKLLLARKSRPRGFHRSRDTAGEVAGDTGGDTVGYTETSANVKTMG

[8] = target: Vasopressin V2 receptor (Homo sapiens, UniProt P30518)
Vasopressin V2 receptor, sequence (P30518 whole entry): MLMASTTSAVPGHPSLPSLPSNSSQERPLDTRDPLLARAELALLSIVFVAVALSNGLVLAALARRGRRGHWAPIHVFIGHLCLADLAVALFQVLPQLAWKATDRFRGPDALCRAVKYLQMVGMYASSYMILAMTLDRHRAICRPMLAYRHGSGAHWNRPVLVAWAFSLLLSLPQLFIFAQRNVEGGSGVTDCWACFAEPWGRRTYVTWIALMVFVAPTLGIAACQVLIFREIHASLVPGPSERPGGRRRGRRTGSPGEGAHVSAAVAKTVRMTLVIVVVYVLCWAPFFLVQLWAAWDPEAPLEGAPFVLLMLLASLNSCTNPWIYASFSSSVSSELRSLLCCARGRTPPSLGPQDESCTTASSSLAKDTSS

[9] = target: Growth hormone secretagogue receptor type 1 (Homo sapiens, UniProt Q92847)
Growth hormone secretagogue receptor type 1, sequence (Q92847 whole entry): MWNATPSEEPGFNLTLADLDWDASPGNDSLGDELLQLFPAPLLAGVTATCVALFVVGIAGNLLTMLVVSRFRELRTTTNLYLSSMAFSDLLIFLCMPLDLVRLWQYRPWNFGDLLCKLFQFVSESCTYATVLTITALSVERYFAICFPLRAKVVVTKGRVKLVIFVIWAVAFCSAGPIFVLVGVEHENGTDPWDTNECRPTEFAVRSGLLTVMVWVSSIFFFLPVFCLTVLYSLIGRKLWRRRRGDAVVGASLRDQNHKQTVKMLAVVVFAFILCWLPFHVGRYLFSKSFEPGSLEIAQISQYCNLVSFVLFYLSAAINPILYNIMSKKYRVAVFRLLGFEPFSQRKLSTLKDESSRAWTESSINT

[10] = target: T4, Thromboxane A2 receptor (Homo sapiens, UniProt P21731)
T4 sequence (P21731 whole entry): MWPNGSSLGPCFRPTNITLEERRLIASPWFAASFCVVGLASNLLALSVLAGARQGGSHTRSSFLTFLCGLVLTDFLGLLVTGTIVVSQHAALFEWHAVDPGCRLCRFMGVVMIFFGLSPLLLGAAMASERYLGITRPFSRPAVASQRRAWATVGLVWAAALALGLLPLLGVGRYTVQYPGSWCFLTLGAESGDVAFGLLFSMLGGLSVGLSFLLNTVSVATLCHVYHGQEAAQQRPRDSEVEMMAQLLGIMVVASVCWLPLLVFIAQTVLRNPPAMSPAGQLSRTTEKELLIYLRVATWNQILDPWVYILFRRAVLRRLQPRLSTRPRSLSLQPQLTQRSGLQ

[11] = target: Histamine H3 receptor (Homo sapiens, UniProt Q9Y5N1)
Histamine H3 receptor, sequence (Q9Y5N1 whole entry): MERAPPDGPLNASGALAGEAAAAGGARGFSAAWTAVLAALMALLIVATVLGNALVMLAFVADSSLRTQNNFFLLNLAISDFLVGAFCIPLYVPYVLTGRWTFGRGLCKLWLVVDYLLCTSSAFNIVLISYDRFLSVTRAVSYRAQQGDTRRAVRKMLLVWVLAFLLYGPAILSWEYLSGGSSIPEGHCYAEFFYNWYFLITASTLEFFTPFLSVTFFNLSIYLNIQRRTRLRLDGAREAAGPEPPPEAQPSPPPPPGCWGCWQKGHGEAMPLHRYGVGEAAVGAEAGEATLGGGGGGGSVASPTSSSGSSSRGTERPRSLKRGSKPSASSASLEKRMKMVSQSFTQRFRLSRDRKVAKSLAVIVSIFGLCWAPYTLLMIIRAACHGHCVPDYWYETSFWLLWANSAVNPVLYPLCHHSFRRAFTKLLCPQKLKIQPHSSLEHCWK

[12] = target: T5, Glucocorticoid receptor (Homo sapiens, UniProt P04150)
T5 sequence (P04150 whole entry): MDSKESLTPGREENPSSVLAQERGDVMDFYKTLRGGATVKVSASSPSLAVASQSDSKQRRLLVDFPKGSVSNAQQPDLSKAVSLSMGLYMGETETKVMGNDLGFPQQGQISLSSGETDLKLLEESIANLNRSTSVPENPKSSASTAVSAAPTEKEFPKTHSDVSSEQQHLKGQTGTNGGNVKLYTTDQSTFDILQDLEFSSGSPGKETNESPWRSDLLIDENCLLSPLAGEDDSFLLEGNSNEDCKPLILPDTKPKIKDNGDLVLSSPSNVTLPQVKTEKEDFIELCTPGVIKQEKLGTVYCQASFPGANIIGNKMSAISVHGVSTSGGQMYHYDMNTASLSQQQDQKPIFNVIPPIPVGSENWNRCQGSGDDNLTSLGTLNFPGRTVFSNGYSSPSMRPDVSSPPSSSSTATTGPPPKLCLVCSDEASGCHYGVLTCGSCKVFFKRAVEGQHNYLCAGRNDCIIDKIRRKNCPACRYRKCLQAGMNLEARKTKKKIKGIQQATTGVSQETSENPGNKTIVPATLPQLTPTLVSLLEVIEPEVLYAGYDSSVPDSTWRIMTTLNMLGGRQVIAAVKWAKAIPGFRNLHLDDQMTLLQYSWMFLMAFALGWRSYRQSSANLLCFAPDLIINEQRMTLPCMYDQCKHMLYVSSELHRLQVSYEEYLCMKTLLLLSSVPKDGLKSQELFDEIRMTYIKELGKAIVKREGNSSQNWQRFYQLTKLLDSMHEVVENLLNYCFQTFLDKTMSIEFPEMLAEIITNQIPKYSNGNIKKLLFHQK
Also: assay procedure not described here.

Compound: N=C(N)NCc1cccc([123I])c1 [IOBENGUANE I 123]
- AC50 [1]: > 30 µM

Compound: CC(C)(N)C(=O)N[C@H](Cc1c[nH]c2ccccc12)C(=O)N[C@H](Cc1c[nH]c2ccccc12)NC=O [MACIMORELIN]
- AC50 [1]: > 30 µM

Compound: C=C1c2c(Cl)ccc(O)c2C(=O)C2=C(O)[C@]3(O)C(=O)C(C(N)=O)=C(O)[C@@H](N(C)C)[C@@H]3[C@@H](O)[C@H]12 [MECLOCYCLINE]
- AC50 [1]: > 30 µM

Compound: Cc1cc2c(OCC(O)CNC(C)C)cccc2[nH]1 (configuration not stated) [MEPINDOLOL]
- AC50 [1]: > 30 µM

Compound: CCCCCOc1ccc(-c2cc(-c3ccc(C(=O)N[C@H]4C[C@@H](O)[C@@H](O)NC(=O)[C@@H]5[C@@H](O)[C@@H](C)CN5C(=O)[C@H]([C@H](O)CC(N)=O)NC(=O)[C@H]([C@H](O)[C@@H](O)c5ccc(O)c(OS(=O)(=O)O)c5)NC(=O)[C@@H]5C[C@@H](O)CN5C(=O)[C@H]([C@@H](C)O)NC4=O)cc3)no2)cc1 [MICAFUNGIN] (X1-[Orn(4R-OH,5R-OH)]T[Hyp][hTyr(3S-OH,4S-OH,3'-OSO3H)][Gln(3R-OH)][Pro(3S-OH,4S-Me)]; lactam 1-C)
- AC50 [1]: > 30 µM

Compound: CCOc1cc(N)c(Cl)cc1C(=O)NCC1CN(Cc2ccc(F)cc2)CCO1 (configuration not stated) [MOSAPRIDE]
- AC50 [1]: > 30 µM

Compound: CCOc1ccc2ccccc2c1C(=O)N[C@@H]1C(=O)N2[C@@H]1SC(C)(C)[C@@H]2C(=O)O [NAFCILLIN]
- AC50 [1]: > 30 µM

Compound: CN1CCC[C@H]1c1cccnc1 [NICOTINE]
- AC50 [1]: > 30 µM

Compound: C#C[C@]1(O)CC[C@H]2[C@@H]3CCC4=C(CCC(=O)C4)[C@H]3CC[C@@]21C [NORETHYNODREL]
- AC50 [1]: > 30 µM

Compound: CCCCCCCCCCC[C@@H](C[C@@H]1OC(=O)[C@H]1CCCCCC)OC(=O)[C@H](CC(C)C)NC=O [ORLISTAT]
- AC50 [1]: > 30 µM

Compound: COc1ccnc(C[S+]([O-])c2nc3ccc(OC(F)F)cc3[nH]2)c1OC (configuration not stated) [PANTOPRAZOLE]
- AC50 [2]: > 10 µM
- AC50 [3]: > 30 µM
- AC50 [4]: > 10 µM
- AC50 [5]: > 30 µM
- AC50 [6]: > 30 µM
- AC50 [7]: > 10 µM
- AC50 [8]: > 30 µM
- AC50 [9]: > 30 µM
- AC50 [10]: > 30 µM
- AC50 [11]: > 10 µM
- AC50 [12]: > 30 µM

Compound: O=C1[C@H]2CCCC[C@H]2C(=O)N1CCCCN1CCN(c2nsc3ccccc23)CC1 [PEROSPIRONE]
- AC50 [1]: > 30 µM

Compound: O=C1NC(=O)C(c2ccccc2)(c2ccccc2)N1 [PHENYTOIN]
- AC50 [2]: > 30 µM
- AC50 [3]: > 30 µM
- AC50 [4]: > 30 µM
- AC50 [5]: > 30 µM
- AC50 [6]: > 30 µM
- AC50 [7]: > 30 µM
- AC50 [8]: > 30 µM
- AC50 [9]: > 30 µM
- AC50 [10]: > 30 µM
- AC50 [11]: > 30 µM
- AC50 [12]: > 30 µM

Compound: O=C(Nc1c(Cl)cncc1Cl)c1ccc(OC(F)F)c(OCC2CC2)c1 [ROFLUMILAST]
- AC50 [2]: > 30 µM
- AC50 [3]: > 30 µM
- AC50 [4]: > 30 µM
- AC50 [5]: > 30 µM
- AC50 [6]: > 30 µM
- AC50 [7]: > 30 µM
- AC50 [8]: > 30 µM
- AC50 [9]: > 30 µM
- AC50 [10]: > 30 µM
- AC50 [11]: > 30 µM
- AC50 [12]: > 30 µM

Compound: CC(C)N(CCCCOCC(=O)NS(C)(=O)=O)c1cnc(-c2ccccc2)c(-c2ccccc2)n1 [SELEXIPAG]
- AC50 [2]: > 30 µM
- AC50 [3]: > 30 µM
- AC50 [4]: > 30 µM
- AC50 [5]: > 30 µM
- AC50 [6]: 7.2 µM
- AC50 [7]: > 30 µM
- AC50 [8]: > 30 µM
- AC50 [9]: > 30 µM
- AC50 [10]: 23.9 µM
- AC50 [11]: > 30 µM
- AC50 [12]: > 30 µM

Compound: CC(=O)S[C@@H]1CC2=CC(=O)CC[C@]2(C)[C@H]2CC[C@@]3(C)[C@@H](CC[C@@]34CCC(=O)O4)[C@H]12 [SPIRONOLACTONE]
- AC50 [2]: > 30 µM
- AC50 [3]: > 30 µM
- AC50 [4]: 26 µM
- AC50 [5]: > 30 µM
- AC50 [6]: > 30 µM
- AC50 [7]: > 30 µM
- AC50 [8]: > 30 µM
- AC50 [9]: > 30 µM
- AC50 [10]: > 30 µM
- AC50 [11]: > 30 µM
- AC50 [12]: 0.19 µM

Compound: Cc1cc(CC(=O)O)n(C)c1C(=O)c1ccc(Cl)cc1 [ZOMEPIRAC]
- AC50 [2]: > 30 µM
- AC50 [3]: > 30 µM
- AC50 [4]: > 30 µM
- AC50 [5]: > 30 µM
- AC50 [6]: > 30 µM
- AC50 [7]: > 30 µM
- AC50 [8]: > 30 µM
- AC50 [9]: > 30 µM
- AC50 [10]: > 30 µM
- AC50 [11]: > 30 µM
- AC50 [12]: > 30 µM
